Source: patent publication US20080305520A9, “Mechanosensitive ion channels and methods of use” (priority 2004, published 2008)
“Also recorded” adds a separate entry of the source.

Tests used:
prostate tumor cell = conditions: medium containing serum; Cancer Letters 145 (1999); cited from earlier work
MscCa = test: Pressure-clamp cell-attached patch recording of MscCa currents in Xenopus oocytes; format: cell-based; conditions: oocyte cell-attached patches; EGTA left out of pipette solution
PC3 cells = test: PC3 cell migration by time-lapse videomicroscopy; format: cell-based, human; conditions: for PC3 cell migration: one hour intervals before, during and after exposure; for reversibility of migration block with washout: up to 1 hour
Method: The effect of the three anti-MscCa agents on PC3 cell migration was tested using time-lapse videomicroscopy to record the trajectory of the migrating prostate tumor cells. Selected video frames were prepared at 15 minute intervals, showing a cluster of 7 PC3 cells as they migrate out from the cluster. […] All three agents blocked cell migration.
(§1) Time-lapse videomicroscopy and Ca 2-imaging were conducted as follows. Cell migration was monitored by time-lapse videomicroscopy using Nomarski optics with an Epifluorescent microscope (TE 200). The time-lapse images were acquired and saved at 5 minute intervals using Metafluor software. Calcium imaging assays were carried out on cells previously loaded with Fura-2 AM (5 tm for 30 minutes). Time-lapse fluorescence images were consecutively acquired at 340 and 380 wavelengths and transmission (DIC) at intervals of I minute using Metafluor. Data analysis was carried out using Metamorph (Version 6. 1) and Excel] 2000. Conversion of pixels to gm based on a calibrated slide to represent the cell trajectories in the field.
(§2) The day before transfection cells were seeded at 50-60% density on sterile coverslips in a 6 well plate in culture medium without antibiotic. Transfection of 100 nM of double stranded siRNA Cy3 labeled per well (Ambion #731 1 and negative control, Ambion, Austin, TX was carried using Lipofectamine 2000 (Invitrogen, Carlsbad, CA) according to the manufacturer's instructions for siRNA transfections. Cells were stored in the incubator after the addition of the complexes and 7% FCS medium without antibiotic was added after the first 6 hours of transfection. The next day the supernatant was removed and normal culture medium replaced. Cells were tested by patch clamp and videomicroscopy during the next 48-72 hours, using the patch clamp and videomicroscopy methods described above in examples 4 and 5. […] The foregoing detailed description and examples have been given for clarity of understanding only. No unnecessary limitations are to be understood therefrom. The invention is not limited to the exact details shown and described, for variations obvious to one skilled in the art will be included within the invention defined by the claims.

[1] = tested on: fish epithelial keratocyte; conditions: Lee et al., Nature 400 (1999), cited from earlier work
[2] = tested on: [Ca^2+]i fluctuations in migrating PC3 cells; test: Fura-2 Ca2+ imaging of [Ca2+]i fluctuations in migrating PC3 cells; format: cell-based, human; conditions: for sustained and transient [Ca^2+]i oscillations: same concentrations that blocked/reduced MscCa activity and PC3 cell migration, 9 cells, 3 experiments
Method: Two distinct types of [Ca^2+]i fluctuations were observed; a sustained Ca^2+)1 that increased from the front of the cell to the rear and was maintained for the duration of the locomotion cycle (up to 3 hours) measured from tether formation to tether release; and a fast transient [Ca2+i wave that spread rapidly through out the cell and lasted <1 minute (the time interval between frames) with an average frequency of 6 waves in 30 minutes. Both sustained and transients [Ca2+]i fluctuations were associated with moving cells. All three anti-MscCa agents described above, abolished both forms of [Ca^2+]i oscillations at the same concentrations that blocked/reduced MscCa activity and PC3 cell migration (9 cells, 3 experiments). Again, whereas with Gd and GsmTx4 the block was reversible, there was no recovery after the anti-TRPCI Ab washout.
as §1, §2

MscCa in PC3 cells = target: T1, MscCa in PC3 cells (Homo sapiens, UniProt P48995); test: Cell-attached patch-clamp recording of MscCa activity in PC3 cells; format: cell-based
T1 construct: host or cells: PC3 human prostate tumor cells
Method: PC3 cell lines were grown in RPM1 1640 medium with 25 mM Hepes and glutamine, supplemented with 7% fetal calf serum, I mM sodium pyruvate, 4.5 g/L glucose, penicillin G (10,000 U/ml) and streptomycin sulfate (10,000 tg/ml) at 37° C. in a humidified 95% 02-5% C02 atmosphere. For patch-lamp studies, cells were seeded at low density on sterile coverslips placed in 33 mm culture dishes and tested during the next 2 - 5 days. Patch clamp recording was conducted as follows. Standard cell-attached patch-clamp recording was used to record single channel currents. The pipettes were made from thin-walled borosilicate glass (World Precision Instruments, Stevenage, UK) with an outside tip diameter of -2 Wm. Immediately prior to patch clamping, a cover slip was removed from the culture dish, glued with dots of silcone to a 35 mm culture, and placed in a microscope stage holder. Cells were visualized with an IM35 Zeiss microscope with fluorescence and Normaski optics. A pressure-clamp (McBride, D.W., Jr. & Hamill, O. P., PflLigers Archiv. 421, 606-612 (1992)) was used to apply pressure and suction protocols to achieve the initial tight seal and stimulate MS channels. […] This voltage-dependent gating of the open channel is also a characteristic of the prototypical MscCa, native to the frog oocyte (Taglietti et al., J. Physiol., 407, 311 (1988)), identified as being formed by the transient receptor channel protein I (TRPCI). The current-voltage relationship of the prostate MscCa measured with a 100 mM K+, zero Ca^2+in the pipette solution indicates an inwardly rectifying single channel conductance (-70 pS chord conductance at -100 mV and 20 pS at 50 mV) (Fig. • SB) that is essentially identical to that of the oocyte MscCa indicating a common pore structure. […] In the “sustained mode” (SM), the channels remained open for the duration of stimulation (Fig. SC), while in the “transient mode” (TM) the channels closed rapidly (cO.5 s) (FIG. 5C). […]

prostate tumor cells = conditions: cited from earlier work
[3] = tested on: Ca^2+-activated K+channel; test: Delayed outward channel currents after MscCa activation, PC3 cell-attached patch; format: cell-based, human; conditions: 50 nM charybdotoxin in the pipette solution; 1 mM external Ca^2+
Method: PC3 cell lines were grown in RPM1 1640 medium with 25 mM Hepes and glutamine, supplemented with 7% fetal calf serum, I mM sodium pyruvate, 4.5 g/L glucose, penicillin G (10,000 U/ml) and streptomycin sulfate (10,000 tg/ml) at 37° C. in a humidified 95% 02-5% C02 atmosphere. For patch-lamp studies, cells were seeded at low density on sterile coverslips placed in 33 mm culture dishes and tested during the next 2 - 5 days. Patch clamp recording was conducted as follows. Standard cell-attached patch-clamp recording was used to record single channel currents. The pipettes were made from thin-walled borosilicate glass (World Precision Instruments, Stevenage, UK) with an outside tip diameter of -2 Wm. Immediately prior to patch clamping, a cover slip was removed from the culture dish, glued with dots of silcone to a 35 mm culture, and placed in a microscope stage holder. Cells were visualized with an IM35 Zeiss microscope with fluorescence and Normaski optics. […] The current-voltage relationship of the prostate MscCa measured with a 100 mM K+, zero Ca^2+in the pipette solution indicates an inwardly rectifying single channel conductance (-70 pS chord conductance at -100 mV and 20 pS at 50 mV) (Fig. • SB) that is essentially identical to that of the oocyte MscCa indicating a common pore structure. […]

T1 sequence (P48995 whole entry): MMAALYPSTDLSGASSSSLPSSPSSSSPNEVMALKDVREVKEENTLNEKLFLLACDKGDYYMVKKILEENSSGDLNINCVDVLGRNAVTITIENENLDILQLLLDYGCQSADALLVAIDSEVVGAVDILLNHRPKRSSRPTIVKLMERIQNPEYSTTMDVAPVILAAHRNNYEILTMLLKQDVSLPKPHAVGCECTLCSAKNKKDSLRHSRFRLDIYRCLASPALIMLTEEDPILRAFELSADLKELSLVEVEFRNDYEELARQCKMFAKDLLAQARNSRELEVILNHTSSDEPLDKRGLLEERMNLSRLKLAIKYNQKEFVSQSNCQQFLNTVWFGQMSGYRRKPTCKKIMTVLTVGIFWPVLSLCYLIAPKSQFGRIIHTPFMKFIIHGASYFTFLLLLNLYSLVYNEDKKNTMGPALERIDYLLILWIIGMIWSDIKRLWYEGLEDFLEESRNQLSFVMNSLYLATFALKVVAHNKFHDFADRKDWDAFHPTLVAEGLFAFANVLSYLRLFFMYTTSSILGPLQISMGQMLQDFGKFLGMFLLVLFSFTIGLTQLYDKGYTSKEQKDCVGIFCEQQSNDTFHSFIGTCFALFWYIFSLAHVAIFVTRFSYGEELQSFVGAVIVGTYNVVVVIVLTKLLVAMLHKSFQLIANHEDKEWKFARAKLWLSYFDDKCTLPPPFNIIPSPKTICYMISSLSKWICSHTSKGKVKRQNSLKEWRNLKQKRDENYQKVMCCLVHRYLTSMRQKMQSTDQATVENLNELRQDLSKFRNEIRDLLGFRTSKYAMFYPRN

Molecule: [Gd+3] [Gd^3+, gadolinium ion]
- prostate tumor cell motility (prostate tumor cell): enhanced rather than inhibited
- block of native and TRPC1-expressed MscCa (MscCa): equally effective in blocking
- PC3 cell migration (PC3 cells; Gd^3+): blocked
- reversibility of migration block with washout (PC3 cells): reversible
- Ca^2+ transients [1]: abolishes
- cell migration ([1]; prevents rear detachment): inhibiting
- sustained and transient [Ca^2+]i oscillations [2]: abolished
- reversibility of block of [Ca^2+]i oscillations after washout [2]: reversible
- MscCa activity (MscCa in PC3 cells; Gd^3+ also included in the pipette-tip solution, 20 out of 20 patches): abolished
- MscCa patch current (channel block) (MscCa in PC3 cells; Gd^3+ in back solution at 5 µM, -3 minutes after tight seal, pressure steps): block the channel

Molecule: NC1=N[C@H](O)[C@H]2[C@H]3O[C@]4(O)O[C@@H]([C@@H](O)[C@@]2(N1)[C@@H]4O)[C@]3(O)CO [tetrodotoxin]
- invasiveness (prostate tumor cells): reduce invasiveness

Molecule: GCLEFWWKCNPNDDKCCRPKLKCSKLFKLCNFSSG [GsmTx-4]
- PC3 cell migration (PC3 cells; GsMTx-4 3 μM): blocked
- reversibility of migration block with washout (PC3 cells): reversible
- sustained and transient [Ca^2+]i oscillations [2]: abolished
- reversibility of block of [Ca^2+]i oscillations after washout [2]: reversible
- MscCa activity (MscCa in PC3 cells; 3 μM GsmTx-4 in pipette, SM or TM gating mode): blocked; also recorded: effective in blocking

Molecule: charybdotoxin (QFTNVSCTTSKECWSVCQRLHNTSRGKCMNKKCRCYS)
- delayed activation of outward channel currents after MscCa inward currents [3]: absent
